{"source": "patent EP1180016B1", "about": "“METHODS AND COMPOSITIONS FOR NON-VIRAL GENE THERAPY FOR TREATMENT OF HYPERPROLIFERATIVE DISEASES” (Introgen Therapeutics, Inc., priority 1999, dated 2000)", "origin": "cited, not measured here", "key": {"[1]": {"tested_on": "chronic myelogenous leukemia", "conditions": "previously untreated chronic myelogenous leukemia"}, "[2]": {"conditions": "physiological pH"}}, "note": "Where a name gives a salt, the structure may show the parent alone. *1 amine or outer side, *2 acyl side, *3 side chain or, on linkers, in order; H or OH if unused. Where a SMILES comes first, the peptide text is derived from it. Bridges are numbered along the chain shown (N, C = ends). Roman numbers before positions name the chains, in order. [ ]: non-standard residue; d: D form. Actinocin(9to1) = Cc1c2oc3c(C)ccc(C(=O)[*:1])c3nc-2c(C(=O)[*:2])c(N)c1=O; NMeV = CN[C@H](C(=O)O)C(C)C; Sar = CNCC(=O)O", "data": [{"compound": "Cc1c2oc3c(C)ccc(C(=O)N[C@@H]4C(=O)N[C@H](C(C)C)C(=O)N5CCC[C@H]5C(=O)N(C)CC(=O)N(C)[C@@H](C(C)C)C(=O)O[C@@H]4C)c3nc-2c(C(=O)N[C@@H]2C(=O)N[C@H](C(C)C)C(=O)N3CCC[C@H]3C(=O)N(C)CC(=O)N(C)[C@@H](C(C)C)C(=O)O[C@@H]2C)c(N)c1=O", "note": "[Actinomycin D] (I: T[dV]P[Sar][NMeV] / II: T[dV]P[Sar][NMeV]; ester I:1-I:C, II:1-II:C; linker I:N-II:N via Actinocin(9to1))", "values": [{"measurement": "dose excreted intact into the bile", "setting": "in vivo", "result": "Half"}]}, {"compound": "CS(=O)(=O)OCCCCOS(C)(=O)=O", "note": "[Busulfan, 1,4-butanediol dimethanesulfonate]", "values": [{"measurement": "adults obtaining hematologic remission with regression or stabilization of organomegaly", "setting": "[1]", "result": "Approximately 90%"}]}, {"compound": "O=C(O)CCCc1ccc(N(CCCl)CCCl)cc1", "note": "[Chlorambucil, 4-[bis(2-chlorethyl)amino] benzenebutanoic acid]", "values": [{"measurement": "terminal half-life of the parent drug", "setting": "single oral doses of 0.6-[…]", "result": 1.5, "unit": "h"}]}, {"compound": "COc1cccc2c1C(=O)c1c(O)c3c(c(O)c1C2=O)C[C@@](O)(C(C)=O)C[C@@H]3O[C@H]1C[C@H](N)[C@H](O)[C@H](C)O1", "note": "[Daunorubicin, 5,12-Naphthacenedione, (8S-cis)-8-acetyl-10-[(3-amino-2,3,6-trideoxy-a-L-lyxo-hexanopyranosyl)oxy]-7,8,9,10-tetrahydro-6,8,11-trihydroxy-10-methoxy-, hydrochloride]", "values": [{"measurement": "half-life of distribution", "setting": "intravenous", "result": 0.75, "unit": "h"}]}, {"compound": "O=NN(CCCl)C(=O)NC1CCCCC1", "note": "[Lomustine, 1-(2-chloro-ethyl)-3-cyclohexyl-1 nitrosourea]", "values": [{"measurement": "ionization", "setting": "[2]", "result": "relatively unionized"}, {"measurement": "radioactivity excreted in the form of degradation products within 24 hours", "setting": "oral radioactive lomustine, 30 mg/m^2 to 100 mg/m^2", "result": "about half"}]}]}
